Data: ChEMBL document CHEMBL5725512, “Fused bicyclic 1,2,4-triazine compounds as TAM inhibitors” (2017)

Legend:
[1] = molecular target: Tyrosine-protein kinase JAK1 (Homo sapiens, UniProt P23458); assay: JAK1 Assay: As used herein, a selective JAK1 inhibitor is an inhibitor of JAK1 which is selective for JAK1 over JAK2, JAK3 and TYK2. In some embodiments, the compounds or salts are about 10-fold more selective for JAK1 over JAK2. In some embodiments, the compounds or salts are about 10-fold, about 15-fold, or about 20-fold more selective for JAK1 over JAK2 as calculated by measuring IC50 at 1 mM …
[2] = molecular target: T1, Phosphatidylinositol 4,5-bisphosphate 3-kinase catalytic subunit delta isoform (Homo sapiens, UniProt O00329); assay: PI3K Delta Assay: In some embodiments, the PI3Kδ inhibitor is selective. By ¿selective¿ is meant that the compound binds to or inhibits a kinase with greater affinity or potency, respectively, compared to at least one other kinase. In some embodiments, the PI3Kδ inhibitors are selective inhibitors of PI3Kδ (e.g., over PI3Kα, PI3Kβ and PI3Kγ). In some embodiments, selectivity can be at least about 2-fold, 5-fold, 10-fold, at least about 20-fold, at least about 50-fold, at least about 100-fold, at least about 200-fold, at least about 500-fold or at least about 1000-fold. Selectivity can be measured by methods routine in the art. In some embodiments, selectivity can be tested at the Km ATP concentration of each enzyme. In some embodiments, the selectivity of compounds described herein can be determined by cellular assays associated with particular PI3K kinase activity.
T1 sequence (O00329 whole entry): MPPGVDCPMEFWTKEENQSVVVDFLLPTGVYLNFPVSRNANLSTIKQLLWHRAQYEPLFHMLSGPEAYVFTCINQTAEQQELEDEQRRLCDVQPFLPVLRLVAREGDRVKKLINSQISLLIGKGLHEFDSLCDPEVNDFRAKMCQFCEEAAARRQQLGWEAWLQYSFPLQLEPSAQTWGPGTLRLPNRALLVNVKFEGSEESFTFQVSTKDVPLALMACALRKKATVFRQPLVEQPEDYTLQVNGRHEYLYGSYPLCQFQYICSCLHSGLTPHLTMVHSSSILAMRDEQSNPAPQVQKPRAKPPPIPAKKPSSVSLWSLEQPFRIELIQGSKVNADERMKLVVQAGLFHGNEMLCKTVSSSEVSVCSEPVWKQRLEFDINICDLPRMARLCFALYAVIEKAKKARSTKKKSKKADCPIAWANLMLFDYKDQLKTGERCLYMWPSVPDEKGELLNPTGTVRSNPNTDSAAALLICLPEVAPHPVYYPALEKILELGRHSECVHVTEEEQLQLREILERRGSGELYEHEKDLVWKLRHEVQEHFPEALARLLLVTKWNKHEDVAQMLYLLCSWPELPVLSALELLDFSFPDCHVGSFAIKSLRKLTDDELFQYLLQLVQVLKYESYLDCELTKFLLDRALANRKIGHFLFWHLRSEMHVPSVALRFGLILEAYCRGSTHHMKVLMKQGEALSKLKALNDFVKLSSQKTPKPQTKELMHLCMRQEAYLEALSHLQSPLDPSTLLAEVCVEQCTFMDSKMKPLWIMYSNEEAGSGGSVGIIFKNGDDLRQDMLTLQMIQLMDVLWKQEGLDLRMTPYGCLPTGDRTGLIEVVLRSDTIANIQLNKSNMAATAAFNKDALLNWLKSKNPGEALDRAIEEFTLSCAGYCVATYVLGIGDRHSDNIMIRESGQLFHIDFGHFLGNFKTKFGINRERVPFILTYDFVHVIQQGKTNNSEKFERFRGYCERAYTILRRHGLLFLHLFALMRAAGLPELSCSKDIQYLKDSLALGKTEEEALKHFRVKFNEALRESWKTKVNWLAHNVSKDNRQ

Sequence of Tyrosine-protein kinase JAK1 (P23458 whole entry, canonical isoform): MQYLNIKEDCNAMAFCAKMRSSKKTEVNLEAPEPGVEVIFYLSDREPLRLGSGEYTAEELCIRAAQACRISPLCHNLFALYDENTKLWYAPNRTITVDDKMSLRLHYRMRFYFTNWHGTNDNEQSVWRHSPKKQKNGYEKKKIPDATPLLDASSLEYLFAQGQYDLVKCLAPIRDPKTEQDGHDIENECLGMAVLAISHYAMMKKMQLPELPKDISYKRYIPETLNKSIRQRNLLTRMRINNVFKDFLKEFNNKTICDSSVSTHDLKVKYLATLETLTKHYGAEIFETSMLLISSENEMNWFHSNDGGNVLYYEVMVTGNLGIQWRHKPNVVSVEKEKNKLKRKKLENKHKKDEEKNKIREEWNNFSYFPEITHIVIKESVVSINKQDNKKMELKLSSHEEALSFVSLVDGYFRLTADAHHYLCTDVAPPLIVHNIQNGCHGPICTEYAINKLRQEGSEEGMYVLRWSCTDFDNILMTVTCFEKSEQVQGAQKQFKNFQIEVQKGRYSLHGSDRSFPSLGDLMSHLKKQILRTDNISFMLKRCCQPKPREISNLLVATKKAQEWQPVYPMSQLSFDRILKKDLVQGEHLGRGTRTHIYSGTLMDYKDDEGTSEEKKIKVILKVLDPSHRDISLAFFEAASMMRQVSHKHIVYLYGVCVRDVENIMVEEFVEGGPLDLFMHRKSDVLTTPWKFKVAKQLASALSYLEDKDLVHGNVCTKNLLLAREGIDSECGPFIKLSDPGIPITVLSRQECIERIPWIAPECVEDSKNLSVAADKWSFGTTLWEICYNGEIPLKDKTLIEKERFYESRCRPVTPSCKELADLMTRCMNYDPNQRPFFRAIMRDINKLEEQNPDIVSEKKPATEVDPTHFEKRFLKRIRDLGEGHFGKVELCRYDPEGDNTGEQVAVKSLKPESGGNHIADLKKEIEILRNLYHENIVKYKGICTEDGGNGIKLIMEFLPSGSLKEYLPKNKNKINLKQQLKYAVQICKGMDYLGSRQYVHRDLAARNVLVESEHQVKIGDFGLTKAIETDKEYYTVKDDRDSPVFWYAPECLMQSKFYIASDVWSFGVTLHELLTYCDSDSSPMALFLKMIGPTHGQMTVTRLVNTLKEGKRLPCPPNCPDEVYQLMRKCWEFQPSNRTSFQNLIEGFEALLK

IC50 [1] [µM]	Structure (SMILES)	IC50 [2] [µM]
< 0.01	C[C@@H](O)CNCc1cc(OC2CCN([C@H]3C[C@](CC#N)(n4cc(-c5ncnc6[nH]ccc56)cn4)C3)CC2)nc(C(F)(F)F)c1	–
< 0.01	N#CCC1(n2cc(-c3ncnc4[nH]ccc34)cn2)CN(C2CCN(C(=O)c3ccnc(C(F)(F)F)c3F)CC2)C1 [ITACITINIB]	–
< 0.01	N#CCC1(n2cc(-c3ncnc4[nH]ccc34)cn2)CN([C@H]2CC[C@@H](Oc3cc(CN4CC[C@@H](O)C4)cc(C(F)(F)F)n3)CC2)C1	–
–	CCOc1c(C(C)n2nc(C)c3c(N)ncnc32)cc(C)c(C#N)c1-c1ccc(C(=O)N(C)C)nc1 (stereo unspecified)	< 0.05
< 0.01	C[C@@H](CO)NCc1cc(OC2CCN([C@H]3C[C@](CC#N)(n4cc(-c5ncnc6[nH]ccc56)cn4)C3)CC2)nc(C(F)(F)F)c1	–
< 0.01	N#CC[C@]1(n2cc(-c3ncnc4[nH]ccc34)cn2)C[C@H](N2CCC(Oc3cc(CN4CCC[C@H]4CO)cc(C(F)(F)F)n3)CC2)C1	–
< 0.01	N#CCC1(n2cc(-c3ncnc4[nH]ccc34)cn2)CN(C2CCN(C(=O)c3ccnc(C(F)(F)F)n3)CC2)C1	–
< 0.01	N#CC[C@]1(n2cc(-c3ncnc4[nH]ccc34)cn2)C[C@H](N2CCN(C(=O)c3ccnc(C(F)(F)F)n3)CC2)C1	–
< 0.01	N#CCC1(n2cc(-c3ncnc4[nH]ccc34)cn2)CN(C2CCN(C(=O)Nc3ccc(F)cc3C(F)(F)F)CC2)C1	–
< 0.01	N#CCC1(n2cc(-c3ncnc4[nH]ccc34)cn2)CN([C@H]2CC[C@@H](Oc3cc(CCO)nc(C(F)(F)F)n3)CC2)C1	–
< 0.01	N#CCC(CN1CCN(C(=O)c2ccc(C#N)cc2F)CC1)n1ccc(-c2ncnc3[nH]ccc23)c1 (stereo unspecified)	–
< 0.01	N#CCC(C1CCN(c2cccc(Cl)n2)C1)n1cc(-c2ncnc3[nH]ccc23)cn1 (single isomer, unassigned)	–
< 0.1	C[C@@H](O)c1nc2cnc3ccsc3c2n1[C@H]1CC[C@H](CC#N)OC1	–
< 0.01	N#CC[C@]1(n2cc(-c3ncnc4[nH]ccc34)cn2)C[C@H](N2CCC(Oc3cc(CN4CC(O)C4)cc(C(F)(F)F)n3)CC2)C1	–
< 0.01	CC(C)(O)c1cc(O[C@H]2CC[C@@H](N3CC(CC#N)(n4cc(-c5ncnc6[nH]ccc56)cn4)C3)CC2)nc(C(F)(F)F)c1	–
< 0.01	CCNCc1cc(O[C@H]2CC[C@@H](N3CC(CC#N)(n4cc(-c5ncnc6[nH]ccc56)cn4)C3)CC2)nc(C(F)(F)F)c1	–
< 0.01	C[C@H](O)CNCc1cc(OC2CCN([C@H]3C[C@](CC#N)(n4cc(-c5ncnc6[nH]ccc56)cn4)C3)CC2)nc(C(F)(F)F)c1	–
< 0.01	N#CC[C@]1(n2cc(-c3ncnc4[nH]ccc34)cn2)C[C@H](N2CCC(Oc3cc(CCO)cc(C(F)(F)F)n3)CC2)C1	–
< 0.01	N#CCC(C1CCN(c2nc3cccnc3o2)C1)n1cc(-c2ncnc3[nH]ccc23)cn1 (stereo unspecified)	–
< 0.01	C[C@H](NC(=O)c1cc(F)c(N2CC(CC#N)(n3cc(-c4ncnc5[nH]ccc45)cn3)C2)cc1F)C(F)(F)F	–
< 0.01	N#CCC1(n2cc(-c3ncnc4[nH]ccc34)cn2)CN([C@H]2CC[C@@H](Oc3cc(CN4CC[C@H](O)C4)cc(C(F)(F)F)n3)CC2)C1 (single isomer, unassigned)	–
